Source: patent publication US8124964B2, “Field-effect transistor” (Nippon Kayaku Kabushiki Kaisha, priority 2006, dated 2012)

Columns and labels:
[1] = Solubility Test 2: solubility to chloroform; type: physicochemical; conditions: room temperature, visually checked
Experimental: (§1) To confirm solubility to solvent, the solubility of a test compound to chloroform was measured. A test compound was added to chloroform little by little at room temperature and stirred. The solubility was determined by visually checking whether it was dissolved or not. When the test compound remained undissolved, the total amount by mass of the test compound added immediately before the moment was calculated and the solubility to chloroform was expressed in terms of % by mass.
After a chloroform suspension solution of the compound represented by the formula (101) above was prepared, insoluble solid substances were filtered off to obtain a filtrate. The solubility of the compound represented by the formula (101) above to the filtrate was 0.02% by mass.

[2] = Solubility Test 1: solubility to toluene; type: physicochemical; conditions: for Solubility (% by mass): to toluene, room temperature, visually checked
Experimental: as §1, with “solvent, which is one of the important characteristics of a semiconductor manufactured by coating,” for “solvent,”, “toluene” for “chloroform”
The “Compound No.” of Table 2 is the same as defined in Table 1. Furthermore, in Comparative Example 1, the solubility of Compound 16 of Example 15 disclosed in Patent Document 3 to toluene was calculated by the same test method as above. The structural formula of the compound used in Comparative Example 1 is shown in the formula (101) below.

| Compound | Solubility (% by mass) [1] [% by mass] | Solubility (% by mass) [2] | Solubility (% by mass) ([2]; listed as formula (101)) | solubility to toluene relative to the aryl derivative of Comparative Example 1 [2] |
| --- | --- | --- | --- | --- |
| c1ccc(-c2ccc3c(c2)sc2c4ccc(-c5ccccc5)cc4sc32)cc1 [Comparative Example 1, reference compound] | 0.02 | 0.01 or less % by mass | not more than 0.01 % by mass | – |
| CCCCCCCCc1ccc2c(c1)sc1c3ccc(CCCCCCCC)cc3sc21 [Compound No. 16, 2,7-Dioctyl[1]benzothieno[3,2-b][1]benzothiophene] | 5.4 | 1.5 % by mass | – | at least 50 fold |
| CCCCCCCCCCCCc1ccc2c(c1)sc1c3ccc(CCCCCCCCCCCC)cc3sc21 [Compound No. 20, 2,7-Didodecyl[1]benzothieno[3,2-b][1]benzothiophene] | 0.6 | 0.2 % by mass | – | ≥ 20 fold |
